Several values for one entry are separate records, joined by “and”; a condition that tells them apart may be missing. Equal entries are not always repeated.
Tests used:
[1] = biological target: recombinant human CYP3A4 enzyme (Homo sapiens, UniProt P08684); test: CYP3A4 incubation assay; type: in vitro ADME
Procedure: Example 24. CYP3A4 Incubation Assay
Compounds (final concentration […]) were incubated in 100 mM phosphate buffer containing 100 pmol/mL recombinant human CYP3A4 enzyme for 0, 5, 10, 15 and 25 minutes.
Testosterone was used as positive control. Reaction was initiated by the addition of NADPH (final concentration […]) and carried out at 37° C. The reaction was stopped by the addition of 4 volumes of cold acetonitrile (with 100 nM alprazolam, 200 nM labetalol, 200 nM imipramine and 2 μM ketoprofen as internal standards). Samples were centrifuged at 3,220 g for 40 minutes to precipitate protein. 70 μL supernatant was transferred to the analysis plate containing 110 μL of acetonitrile for LC-MS/MS analysis.
The following table indicates the percentage remaining for the indicated examples after incubation with recombinant Human CYP3A4 after 25 minutes under the same conditions as described for Example […].

[2] = biological target: T1, TRPV3 channels (Homo sapiens, UniProt Q8NET8); test: TRP Family FLIPR Assay, TRPV3; type: cell-based; details: HEK293 cells (transient)
T1 construct: expressed in transfected cells; host or cells: HEK293 (transient)
T1 sequence (Q8NET8 1-790): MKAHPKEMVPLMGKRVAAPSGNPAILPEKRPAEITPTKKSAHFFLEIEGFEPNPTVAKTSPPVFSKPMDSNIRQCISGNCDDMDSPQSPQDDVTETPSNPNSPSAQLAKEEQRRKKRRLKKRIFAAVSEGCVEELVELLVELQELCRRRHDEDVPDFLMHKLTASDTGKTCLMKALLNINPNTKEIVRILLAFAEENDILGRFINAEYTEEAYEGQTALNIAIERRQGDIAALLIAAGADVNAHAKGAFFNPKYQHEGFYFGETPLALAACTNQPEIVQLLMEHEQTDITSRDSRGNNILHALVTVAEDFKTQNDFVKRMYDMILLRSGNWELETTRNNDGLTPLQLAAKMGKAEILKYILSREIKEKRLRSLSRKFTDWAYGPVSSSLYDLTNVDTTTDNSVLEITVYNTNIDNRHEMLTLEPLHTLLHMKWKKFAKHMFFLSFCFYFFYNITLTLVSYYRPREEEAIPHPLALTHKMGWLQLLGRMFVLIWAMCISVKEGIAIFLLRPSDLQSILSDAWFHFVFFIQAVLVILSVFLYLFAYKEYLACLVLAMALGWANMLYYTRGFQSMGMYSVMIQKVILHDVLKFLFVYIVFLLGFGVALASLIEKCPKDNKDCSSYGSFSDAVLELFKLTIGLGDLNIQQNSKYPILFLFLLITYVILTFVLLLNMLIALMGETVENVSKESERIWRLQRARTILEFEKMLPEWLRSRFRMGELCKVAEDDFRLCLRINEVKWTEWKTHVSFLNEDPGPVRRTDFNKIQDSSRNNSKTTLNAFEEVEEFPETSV
Procedure: The compound of Example 5 was tested for selectivity against a panel of Human TRP family ion channels in a TRP Family FLIPR Assay as described below. • 1. TRPC3 channels (human TRPC3 variant 1 gene, expressed in HEK293 cells). • 2. TRPC4 channels (human TRPC4 gene, expressed in HEK293 cells). • 3. TRPC5 channels (human TRPC5 gene, expressed in HEK293 cells). • 4. TRPC6 channels (human TRPC6 gene, expressed in HEK293 cells). • 5. TRPM2 channels (human TRPM2 gene, transiently expressed in HEK293 cells). • 6. TRPM3 channels (human TRPM3 gene, transiently expressed in HEK293 cells). • 7. TRPM4 channels (human TRPM4 gene, expressed in CHO cells). • 8. […]
Data acquisition was performed via the FLIPR Control software supplied with the FLIPR System (MDS-AT) and data was analyzed using Microsoft Excel (Microsoft Corp., Redmond, WA) or GraphPad Prism. […]
[formula] where Base is the response at low concentrations of test article, Max is the maximum response at high concentrations, xhalf the EC50, or IC50, the concentration of test article producing either half-maximal activation or inhibition, and rate is the Hill coefficient. […] No assumptions about the fit parameters was made; the fit parameters were determined by the algorithm.
The effect of each test article was evaluated at eight (8) concentrations: 0.003, 0.01, 0.03, 0.1, 0.3, 1, 3 and 10 μM, n≤4 wells/concentration). […]

[3] = test system: Hepatocytes; test: Hepatocytes predicted clearance, rat

Chain of recombinant human CYP3A4 enzyme (P08684 whole entry): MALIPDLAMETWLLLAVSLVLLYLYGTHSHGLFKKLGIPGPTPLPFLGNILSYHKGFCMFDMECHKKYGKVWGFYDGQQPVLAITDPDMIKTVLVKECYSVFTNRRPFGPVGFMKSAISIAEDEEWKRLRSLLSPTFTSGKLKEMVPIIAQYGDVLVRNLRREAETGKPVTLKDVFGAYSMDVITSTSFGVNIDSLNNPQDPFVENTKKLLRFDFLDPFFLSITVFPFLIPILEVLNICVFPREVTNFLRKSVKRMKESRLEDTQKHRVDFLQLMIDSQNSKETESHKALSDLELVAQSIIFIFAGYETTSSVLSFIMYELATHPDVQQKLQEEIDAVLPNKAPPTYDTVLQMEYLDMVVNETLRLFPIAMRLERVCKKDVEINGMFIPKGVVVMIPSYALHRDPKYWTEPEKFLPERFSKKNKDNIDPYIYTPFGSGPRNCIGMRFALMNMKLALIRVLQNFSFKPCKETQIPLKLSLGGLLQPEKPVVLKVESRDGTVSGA

CC(C)(O)c1cnc(N2C[C@@]3(CC[C@@H](F)[C@](C)(Cn4cnc5ccc(C#N)cc54)C3)OC2=O)cn1 (single isomer, unassigned) [Example 5]
CYP3A4 Clint ([1]; 100 pmol/mL recombinant human CYP3A4, 37° C., 0-25 min): 0.09 μL/min/pmol CYP450 and < 0.07 μL/min/pmol CYP450 | Metabolic Stability in Recombinant Human CYP3A4 + NADPH (% remaining after 25 min) ([1]; recombinant Human CYP3A4 + NADPH, 25 min): 100% | EC50 ([2]; agonist mode, vs EMAX of cannabidiol 300 μM, read-out: EC50 hTRPV3): > 10 µM | IC50 ([2]; antagonist mode, activated with 2-APB 50 μM, 0.003-10 μM, read-out: IC50 hTRPV3): > 10 µM | Hepatocytes predicted clearance in rat [3]: 7.67 mL/min/kg
